Experimental data reported in patent publication US20040265917A1, “Methods of measuring the ability of a test compound to inactivate a biological target in cells of a subject” (priority 2003, published 2004).

Assays:
MetAP-2 [1] = target: T1, MetAP-2 (Rattus norvegicus, UniProt P38062); test: Free MetAP-2 ELISA (streptavidin plates, Compound 1 capture) in white blood cells and tissues of rats after a single dose, Phase IIa/IIb; format: in vivo, Sprague-Dawley rats
T1 construct: percentage of free MetAP-2 remaining in white blood cells, liver, spleen, lymph nodes and thymus; from tissue; host or cells: white blood cells, liver, spleen, lymph nodes, thymus of Sprague-Dawley rats
Description: Determination of Free MetAP-2 in Rat White Blood Cell Lysates and tissues Following Administration of Compound 2
Preparation of WBC Lysates
Spleen Homogenization and Lysis Procedure
Liver, Thymus and Lymph Nodes Homogenization and Lysis Procedure
Treat 20 μL of each lysate dividing into polypropylene 96-well plates: +Compound 2 Samples (Background Controls): Dilute 40 mM Compound 2 stock 1:4000 for a 10 μM working stock and add 2 μL to background samples for a final concentration of 1 μM Compound 2.
Dilute 40 mM Compound 1 stock 1:4000 for a 10 μM working stock and add 2 μL of diluted to the samples and 5 μL to the rMetAP2 standards for a final concentration of 1 μM; cover, tap gently to mix, and incubate for 1 hr at room temperature without shaking.
Remove the streptavidin plates from 4° C. at least 30 min prior to use Dilute each of the samples 1:10 (180 μL into the 20 μL sample) with PBST and mix well.
Transfer 20 μL and 40 μL aliquots of the diluted samples to streptavidin plates, adding to 30 μL and 10 μL of PBST (for total volumes of 50 μL each), and mix well: duplicate aliquots of each volume for the signal samples (signal sample=−Compound 2) and single aliquots of each volume for the background samples (background samples=+Compound 2).
Cover and incubate the plates at room temperature on plate shaker for 1 hr at medium speed.
Wash 3 times manually with 50 μL of 2% (w/v) SDS. Flick plate briskly over sink to remove 2% SDS. Tap on napkin to blot.
Add 50 μL of 1:500 anti-MetAP2 antibody in PBST using 12 channel pipette, so triplicates receive antibody at same time, cover and incubate at room temp. on plate shaker for 1 hr at medium speed. One plate requires 5 mL of PBST plus 10 μL of anti-MetAP2 antibody.
Add 50 μL of 1:5000 goat anti-rabbit-HRP antibody in PBST using the 12 channel pipette, cover and incubate at room temperature on plate shaker for 1 hr at medium speed. One plate requires 5 mL of PBST plus 1 μL anti-rabbit-HRP antibody. Aliquot 50 μL per well.
10 minutes after adding the TMB substrate, add 100 μL of 1 N H2SO4 and then measure the absorbance at 450 nm.
The purpose of this study was to determine the percentage of free MetAP-2 remaining in white blood cells, liver, spleen, lymph nodes and thymus as a pharmacodynamic marker of Compound 2 activity after a single dose was administered to Sprague-Dawley rats.
A repeat examination of MetAP-2 inhibition in WBCs was conducted with various dose levels of Compound 2, administered either IV or PO in female SD rats. In addition, thymus and liver were collected and snap frozen in liquid nitrogen for MetAP-2 analysis.
At 4, 24, 48, 72, 96, 120 hours post dose whole blood (≧3.0 mL) was taken from anesthetized animals (isoflurane inhalation to effect) via cardiac puncture, using a 20 gauge needle. Blood was immediately placed into EDTA tubes and stored at 4-8° C.
After blood collection animals were sacrificed by CO2 inhalation. The entire thymus and left lateral lobe of the liver were minced, placed into separate tissue cassettes, and snap frozen in liquid nitrogen for future MetAP-2 analysis.
To characterize MetAP-2 turnover in tissues after a single oral administration of Compound 2 and to determine if any sex difference existed.
Blood and tissue samples were collected from SD rats after receiving a single dose of Compound 2. Inhibition of MetAP-2 by Compound 2 was monitored using an ELISA designed to measure the amount of free MetAP-2 in a sample. Cells were lysed and then treated with Compound 1. Compound 1 covalently binds to the active site of MetAP-2 molecules that have not already been derivatized by Compound 2. The resulting biotinylated MetAP-2 is captured onto immobilized streptavidin, then detected with an anti-MetAP-2 antibody and an enzyme-linked secondary antibody. Phase I was used as a pilot study to determine if MetAP-2 inhibition could be monitored in female SD rat white blood cell (WBC) lysates after a single 30 mg/kg dose of Compound 2 administered IV, IP, PO or SC. […]

MetAP-2 [2] = target: T2, MetAP-2 (Mus musculus, UniProt O08663); test: Free MetAP-2 gel shift assay with fluorescent fumagillin analogue (Compound 3) in tumor and liver tissue of mice bearing B16F10 murine melanoma tumors; format: in vivo, C57BL/6 mice; settings: 3 or 30 mg/kg PO every other day; samples 24 hours after last dose
T2 construct: from tissue; host or cells: B16F10 murine melanoma tumor and liver of male C57BL/6 mice
Description: (§1) Male C57BL/6 mice were divided into six groups of 10 mice each. Each mouse received an implant of 10^6B16F10 murine melanoma cells in 100 μL of PBS above the leg. At day seven following implantation, one group of mice (Group 6) began a regimen of 100 mg/kg Compound 2 every other day, administered oral gavage (PO). At day 13 post implantation, the remaining groups began receiving treatment as follows: Group 1: […] vehicle (11 % hydroxypropyl cyclodextrin) every other day; Group 2: 5-fluorouracil 50 mg/kg in 1% propylene glycol/D5W, PO every other day; Group 3: Compound 2, 3 mg/kg PO every other day; Group 4: Compound 2, 30 mg/kg PO, every other day; Group 5: Compound 2, 100 mg/kg PO, every other day. In each group, the last dose was administered on day 19 post implantation, and blood, spleen, tumor, thymus and liver samples were collected from the mice 24 hours following the last dose.
(§2) The tissue samples were prepared for analysis following the protocols set forth in Example 2 and analyzed for free MetAP-2 using the ELISA protocol of Example 2. The prepared tissue samples were also analyzed for free MetAP-2 activity using the following protocol.
1. Dilute samples in 1.5 mL eppendorf tubes to their desired concentration in lysis buffer in 10 uL volume. See calculations.
2. To each tube, add 1 uL of 10 uM Compound 3stock that has been diluted in lysis buffer.
3. Incubate on ice for 1.0 hours. […]

MetAP-2 [3] = target: T1, MetAP-2; test: Phase I pilot free MetAP-2 ELISA (streptavidin beads) in white blood cell lysates after a single dose; format: in vivo, female Sprague-Dawley rats; settings: single 30 mg/kg dose IV, IP, PO or SC; female SD rats; all routes of administration
Description: MetAP-2 inhibition in white blood cells (WBC) was examined after a single dose (30 mg/kg) of Compound 2 , administered either by intravenous (IV), intraperitoneal (IP), oral gavage (PO) or subcutaneous (SC) routes, to female Sprague-Dawley (SD) rats
A ≧1.0 mL whole blood sample was taken from 3 animals/group/time point (4, 24, 48, 72, 96, and 120 hours post dose) for MetAP-2 analysis. Each animal was bled only once by conscious jugular venipuncture. Blood was immediately placed into EDTA tubes and stored at 4-8° C. Two blood smears from each sample were made for possible differential count analysis.
Blood and tissue samples were collected from SD rats after receiving a single dose of Compound 2. Inhibition of MetAP-2 by Compound 2 was monitored using an ELISA designed to measure the amount of free MetAP-2 in a sample. Cells were lysed and then treated with Compound 1. […] The resulting biotinylated MetAP-2 is captured onto immobilized streptavidin, then detected with an anti-MetAP-2 antibody and an enzyme-linked secondary antibody. Phase I was used as a pilot study to determine if MetAP-2 inhibition could be monitored in female SD rat white blood cell (WBC) lysates after a single 30 mg/kg dose of Compound 2 administered IV, IP, PO or SC. […] Following this analysis it was determined that signal from sample replicates were highly variable and the assay required revision. […]

MetAP-2 [4] = target: T2, MetAP-2; test: Free MetAP-2 ELISA in tumor and liver tissue of mice bearing B16F10 murine melanoma tumors; format: in vivo, C57BL/6 mice; settings: 3 or 30 mg/kg PO every other day; samples 24 hours after last dose
Description: as §1, §2
The results of this study are set forth in FIG. 5, which provides a comparison of the results obtained in tumor tissue and liver tissue using the ELISA protocol and those obtained using the gel-shift analysis.

[5] = Phase IIb, 3 mg/kg PO single dose, 48 hr

T1 sequence (P38062 whole entry): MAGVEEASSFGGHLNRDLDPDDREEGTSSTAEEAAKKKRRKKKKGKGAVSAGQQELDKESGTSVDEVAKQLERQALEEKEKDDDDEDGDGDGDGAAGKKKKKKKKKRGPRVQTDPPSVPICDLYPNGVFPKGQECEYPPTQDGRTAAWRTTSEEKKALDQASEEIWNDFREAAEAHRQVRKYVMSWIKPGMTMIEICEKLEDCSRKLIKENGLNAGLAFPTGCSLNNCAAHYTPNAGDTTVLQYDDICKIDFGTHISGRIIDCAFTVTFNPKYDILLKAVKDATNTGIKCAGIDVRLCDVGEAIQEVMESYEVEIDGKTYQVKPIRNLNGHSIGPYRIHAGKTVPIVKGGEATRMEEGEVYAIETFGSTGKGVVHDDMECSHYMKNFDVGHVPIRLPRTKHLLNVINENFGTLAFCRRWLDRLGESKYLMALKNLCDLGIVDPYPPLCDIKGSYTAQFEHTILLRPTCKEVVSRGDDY
T2 sequence (O08663 whole entry): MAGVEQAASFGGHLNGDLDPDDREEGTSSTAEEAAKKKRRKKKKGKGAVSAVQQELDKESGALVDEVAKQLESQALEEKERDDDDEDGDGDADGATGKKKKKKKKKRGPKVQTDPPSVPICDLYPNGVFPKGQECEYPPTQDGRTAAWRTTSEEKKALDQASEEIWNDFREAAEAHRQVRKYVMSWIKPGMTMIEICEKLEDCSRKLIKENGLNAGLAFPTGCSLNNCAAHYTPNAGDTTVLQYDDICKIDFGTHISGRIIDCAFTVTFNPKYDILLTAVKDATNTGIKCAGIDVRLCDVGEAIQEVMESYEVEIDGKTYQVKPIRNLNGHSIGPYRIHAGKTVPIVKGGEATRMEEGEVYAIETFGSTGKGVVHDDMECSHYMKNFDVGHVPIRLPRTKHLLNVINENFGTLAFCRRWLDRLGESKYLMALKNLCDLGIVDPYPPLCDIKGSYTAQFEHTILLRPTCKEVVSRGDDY

duration of inhibition of MetAP-2 in WBC (MetAP-2 [1]; Phase IIa, female SD rats, 30 mg/kg PO versus 0.3 and 3 mg/kg PO, single dose): more prolonged inhibition
sex differences in MetAP-2 inhibition (MetAP-2 [1]; Phase IIb, male and female SD rats, 0.3 and 3 mg/kg PO, single dose): no consistent sex differences
effect on free MetAP-2 levels in tissues other than WBC and liver (spleen, thymus, lymph nodes) (MetAP-2 [1]; Phase IIb, 0.3 mg/kg PO, single dose): no significant effect
free MetAP-2 level in WBC, average (±SEM) (MetAP-2 [1]; [5]): 13%±4%
free MetAP-2 level in liver, average (±SEM) (MetAP-2 [1]; [5]): 13%±5%
free MetAP-2 level in lymph nodes, average (±SEM) (MetAP-2 [1]; [5]): 63%±16%
free MetAP-2 level in spleen, average (±SEM) (MetAP-2 [1]; [5]): 41%±5%
free MetAP-2 level in thymus tissue (MetAP-2 [1]; [5]): recovered completely
recovery of free MetAP-2 in WBC, 3 mg/kg versus 0.3 mg/kg group (MetAP-2 [1]; Phase IIb, single PO dose, by 72 hr): recovered to similar free MetAP-2 levels
average free MetAP-2 remaining in tissues when no measurable free MetAP-2 in WBC (MetAP-2 [1]; groups with no measurable free MetAP-2 in the WBC): ≤ 3%
inhibition at 3 mg/kg (MetAP-2 [1]; rat, Phase IIb, 3 mg/kg PO single dose, four hours after dosing, WBC, liver, spleen, thymus, lymph nodes, read-out: average inhibition of MetAP-2 in all compartments): ≥ 95%
free MetAP-2 levels in liver tissue relative to controls (gel shift) (MetAP-2 [2]): dose-dependent decrease
free MetAP-2 levels in tumor tissue relative to controls (gel shift) (MetAP-2 [2]): dose-dependent decrease
free MetAP-2 signal in WBC lysates (MetAP-2 [3]): reduction followed by a recovery
free MetAP-2 levels in liver tissue relative to controls (ELISA) (MetAP-2 [4]): dose-dependent decrease
free MetAP-2 levels in tumor tissue relative to controls (ELISA) (MetAP-2 [4]): dose-dependent decrease
SMILES: CO[C@@H]1[C@H](OC(=O)N[C@@H](C(N)=O)C(C)C)CC[C@]2(CO2)[C@H]1[C@@]1(C)O[C@@H]1CC=C(C)C [Compound 2, (1-Carbamoyl-2-methyl-propyl)-carbamic acid-(3R, 4S, 5S, 6R )-5-methoxy-4-[(2R, 3R)-2-methyl-3-(3-methyl-but-2-enyl)-oxiranyl]-1-oxa-spiro[2.5]oct-6-yl ester]
rank order of responsiveness of organs (MetAP-2 inhibition relative to WBC) (MetAP-2 [1]; Phase IIb, single PO dose, tissues plotted relative to WBC): liver (most inhibited)>spleen≅lymph nodes>thymus
